Values after ≈ are worked out from the molar mass of the structure shown. Read-outs that look alike come from different tables or passages of the source. Where a SMILES comes first, the peptide text is derived from it. [ ]: non-standard residue; d: D form. Nleu = CC(C)CNCC(=O)O; Nlys = NCCCCNCC(=O)O
How the values were obtained:
E. cloacae = settings: […] MH at pH 8.5
How it was run: (§1)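 MTT added (20–30 min, room temperature); MIC read by eye as lowest concentration inhibiting visible growth (yellow). Polymyxin B positive control from 16 μg/mL.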

E. coli W3110 = system: E. coli W3110
How it was run: as §1

K. pneumoniae OXA-48 = settings: […] MH at pH 8.5
How it was run: as §1

P. aeruginosa PAO1 = system: P. aeruginosa PAO1
How it was run: as §1

PA14 2P4 (pmrB) = system: PA14 2P4 (pmrB)
How it was run: as §1

PA14 4.13 (phoQ) = system: PA14 4.13 (phoQ)
How it was run: as §1

PA14 4.18 (pmrB) = system: PA14 4.18 (pmrB)
How it was run: as §1

[1] = system: ZEM-1A (clinical MDR P. aeruginosa isolate)
How it was run: as §1

[2] = system: human red blood cells (hRBC); test: Minimum hemolytic concentration (MHC); assay type: cell-based
Description: We also measured minimal hemolysis concentrations (MHC) on human red blood cells by serial 2-fold dilution as an indication of toxicity against eukaryotic cells (Table 1).

[3] = Circular dichroism, α-helical content; assay type: physicochemical; settings: 0.1 mg/mL; for CD %α with 5 mM DPC: 10 mM phosphate buffer pH 7.4, 5 mM DPC; for CD %α with 20% TFE: 10 mM phosphate buffer pH 7.4, 20% TFE
B. cenocepacia = settings: diluted MH ([…] MH) at pH 8.5 (Table 2 footnote b)
How it was run: as §1

P. aeruginosa PA14 = system: P. aeruginosa PA14
How it was run: as §1

S. aureus Newman = settings: […] MH at pH 8.5
How it was run: as §1

S. epidermis = settings: […] MH at pH 8.5
How it was run: as §1

S. maltophilia = settings: […] MH at pH 8.5
How it was run: as §1

HEK293 cells = test: Cell viability assay by Alamar blue
Description: The data are represented as the mean value ± SD, n = 3. […] (c) Vesicle leakage assay for a selection of compounds. Lipid vesicles made of EYPG or EYPC were suspended in a buffer (10 mM TRIS, 107 mM NaCl, pH 7.4). After 45 s, the indicated compound was added to reach the desired concentration. After 240 s, 30 μL of 1.2% TritonX-100 was added for full fluorescein release. […] See Supporting Information for the full curves, all of the data, and procedures.
HEK293 cells were cultured and maintained in DMEM high glucose (Dulbecco’s modified Eagle medium, Sigma Aldrich) medium supplemented with 10% FBS (Sigma Aldrich) and 1% penicillin/streptomycin. A549 cells were cultured and maintained in RPMI-1640 medium (Sigma Aldrich), supplemented with 10% FBS (Sigma Aldrich) and 1% penicillin/streptomycin. The cells were handled and subcultured according to the manufacturer instructions. Cells were incubated in a humidified incubator at 37 °C in the presence of 5% CO2.
Assays on HEK293, A549 cells were performed as described earlier.[74] […]

[4] = diluted MH ([…] MH) at pH 8.5 (Table 2 footnote b)

## CC(C)CN(CC(N)=O)C(=O)CN(CC(C)C)C(=O)CN(CC(C)C)C(=O)CN(CCCCN)C(=O)CN(CC(C)C)C(=O)CN(CC(C)C)C(=O)CN(CCCCN)C(=O)CN(CC(C)C)C(=O)CN(CC(C)C)C(=O)CN(CCCCN)C(=O)CNCCCCN [EB11, kkllkllklll] (H-[Nlys][Nlys][Nleu][Nleu][Nlys][Nleu][Nleu][Nlys][Nleu][Nleu][Nleu]-NH2)
E. cloacae; CSV
  MIC E. cloacae, […] MH at pH 8.5: 16 ug/mL
E. cloacae; Table S3
  MIC E. cloacae: 16 µg/mL (≈ 12.1 µM)
E. coli W3110; CSV, […] MH at pH 7.4
  MIC E. coli W3110, […] MH at pH 7.4: 8 ug/mL
E. coli W3110; CSV, […] MH at pH 8.5
  MIC E. coli W3110, […] MH at pH 8.5: 3 ug/mL
E. coli W3110; CSV, full MH at pH 7.4
  MIC E. coli W3110, full MH at pH 7.4: >32 ug/mL
E. coli W3110; CSV, full MH at pH 8.5
  MIC E. coli W3110, full MH at pH 8.5: >32 ug/mL
E. coli W3110; E. coli W3110, […] MH at pH 8.5, up to 300 mM NaCl
  Antibacterial activity as a function of NaCl concentration: strongly reduced
E. coli W3110; Table S2, […] MH, pH 7.4
  MIC E. coli W3110 […] 7.4: 8 µg/mL (≈ 6.05 µM)
E. coli W3110; Table S2, […] MH, pH 8.5
  MIC E. coli W3110 […] 8.5: 2 to 4 µg/mL
E. coli W3110; Table S2, full MH, pH 7.4
  MIC E. coli W3110 Full MH 7.4: > 32 µg/mL
E. coli W3110; Table S2, full MH, pH 8.5
  MIC E. coli W3110 Full MH 8.5: > 32 µg/mL
K. pneumoniae OXA-48; CSV
  MIC K. pneumoniae OXA-48, […] MH at pH 8.5: 32 ug/mL
K. pneumoniae OXA-48; Table S3
  MIC K. pneumoniae OXA-48: 32 µg/mL (≈ 24.2 µM)
P. aeruginosa PAO1; CSV, […] MH at pH 7.4
  MIC P. aeruginosa PAO1, […] MH at pH 7.4: 8 ug/mL
P. aeruginosa PAO1; CSV, full MH at pH 7.4
  MIC P. aeruginosa PAO1, full MH at pH 7.4: >32 ug/mL
P. aeruginosa PAO1; CSV, full MH at pH 8.5
  MIC P. aeruginosa PAO1, full MH at pH 8.5: >32 ug/mL
P. aeruginosa PAO1; P. aeruginosa PAO1, […] MH at pH 8.5, up to 300 mM NaCl
  Antibacterial activity as a function of NaCl concentration: strongly reduced
P. aeruginosa PAO1; Table S2, […] MH, pH 7.4
  MIC P. aeruginosa PAO1 […] 7.4: 8 µg/mL (≈ 6.05 µM)
P. aeruginosa PAO1; Table S2, […] MH, pH 8.5
  MIC P. aeruginosa PAO1 […] 8.5: 4 µg/mL (≈ 3.03 µM)
P. aeruginosa PAO1; Table S2, full MH, pH 7.4
  MIC P. aeruginosa PAO1 Full MH 7.4: > 32 µg/mL
P. aeruginosa PAO1; Table S2, full MH, pH 8.5
  MIC P. aeruginosa PAO1 Full MH 8.5: > 32 µg/mL
PA14 2P4 (pmrB); CSV, […] MH at pH 8.5
  MIC P. aeruginosa PA14 2P4, […] MH at pH 8.5: 12 ug/mL
PA14 2P4 (pmrB); Table S3, […] MH at pH 8.5
  MIC P. aeruginosa PA14 2P4: 8 to 16 µg/mL
PA14 2P4 (pmrB); [4]
  MIC PA14 2P4 (pmrB): 8 to 16 µg/mL
PA14 4.13 (phoQ); CSV, […] MH at pH 8.5
  MIC P. aeruginosa PA14 4.13, […] MH at pH 8.5: 6 ug/mL
PA14 4.13 (phoQ); Table S3, […] MH at pH 8.5
  MIC P. aeruginosa PA14 4.13: 4 to 8 µg/mL
PA14 4.13 (phoQ); [4]
  MIC PA14 4.13 (phoQ): 4 to 8 µg/mL
PA14 4.18 (pmrB); CSV, […] MH at pH 8.5
  MIC P. aeruginosa PA14 4.18, […] MH at pH 8.5: 12 ug/mL
PA14 4.18 (pmrB); Table S3, […] MH at pH 8.5
  MIC P. aeruginosa PA14 4.18: 8 to 16 µg/mL
PA14 4.18 (pmrB); [4]
  MIC PA14 4.18 (pmrB): 8 to 16 µg/mL
[1]; CSV, […] MH at pH 8.5
  MIC P. aeruginosa ZEM-1A, […] MH at pH 8.5: 3 ug/mL
[1]; Table S3, […] MH at pH 8.5
  MIC P. aeruginosa ZEM-1A: 2 to 4 µg/mL
[1]; [4]
  MIC ZEM-1A: 2 to 4 µg/mL
[2]; CSV
  MHC: >2000 µg/mL
[2]; Table S2, hRBC, 10 mM phosphate buffer, 150 mM NaCl, pH 7.4, 25 °C, 4 h
  MHC: > 2000 µg/mL
[2]; hRBC, 10 mM phosphate buffer, 150 mM NaCl, pH 7.4, 25 °C, 4 h
  MHC: >2000 µg/mL
[2]; human red blood cells
  Hemolysis: none of them showed any measurable hemolysis
[3]; DichroWeb, Contin-LL
  CD %α with 5 mM DPC: 7%
  CD %α with 20% TFE: 8%
[3]; Table S2
  CD %α with 5 mM DPC: 7%
  CD %α with 20% TFE: 8%
B. cenocepacia
  MIC B. cenocepacia: >32 µg/mL
P. aeruginosa PA14; CSV, […] MH at pH 8.5
  MIC P. aeruginosa PA14, […] MH at pH 8.5: 3 ug/mL
P. aeruginosa PA14; Table S3, […] MH at pH 8.5, 16-20 hours at 37 °C
  MIC P. aeruginosa PA14: 2 to 4 µg/mL
P. aeruginosa PA14; [4]
  MIC P. aeruginosa PA14: 2 to 4 µg/mL
S. aureus Newman; CSV
  MIC S. aureus Newman, […] MH at pH 8.5: 4 ug/mL
S. aureus Newman; Table S3
  MIC S. aureus Newman: 4 µg/mL (≈ 3.03 µM)
S. epidermis; CSV
  MIC S. epidermis, […] MH at pH 8.5: 1 ug/mL
S. epidermis; Table S3
  MIC S. epidermis: 1 µg/mL (≈ 0.757 µM)
S. maltophilia; CSV
  MIC S. maltophilia, […] MH at pH 8.5: 4 ug/mL
S. maltophilia; Table S3
  MIC S. maltophilia: 4 µg/mL (≈ 3.03 µM)
HEK293 cells; Alamar blue, 24 h
  Toxicity against HEK293 cells, no effect detected up to: > 200 µM
HEK293 cells; read-out: Toxicity on HEK293 cells, CSV
  IC50: > 200 µM
